Reference: US20140296137A1, “METHODS AND COMPOSITIONS FOR CONTROLLING ROTIFERS” (Los Alamos National Security, LLC, priority 2013, published 2014)
Where two headings read alike, the source gives them in different places. Ends that are not written are not given here.

Tests used:
three algae species = experiment: Algae viability assay, summary statements over the three algae species; format: cell-based; conditions: comparison of Tables 3 and 4 with Tables 5 and 6
Protocol: (§1) This example provides the minimal inhibitory concentration (MIC) of antimicrobial peptides (AMPs) for algae. […] Therefore, the tolerance of algae to the AMPs listed in Table 2 of Example 1 was measured.
(§2) Briefly, the algae viability assay used herein measured the “health” of the algae cultures by looking at the color of the algae. […] A visual assay was used to determine the MIC for the individual AMPs on the algae. In each case, a light microscope with 20× magnification was used to observe algae color.
(§3) The effect of insecticidal and non-insecticidal AMPs on three different algae species was measured. The three algae species were Auxenochlorella protothecoides, Chlorella sorokiniana and Chlamydomonas reinhardtii.
Algae cultures were initiated in 96-well plates at an OD 750 of approximately 0.1. […] The antibiotics hygromycin and paromycin served as positive controls for inhibiting and/or reducing the growth rate of algae. Algae cultured in water or media served as a negative control (i.e., no effect on growth). The algae cultures were monitored by preparing microscopy slides with a small sample taken from the individual wells. The algae slides were then visualized under a 20× magnification microscope for algae viability as measured by algae color. […]

[1] = system: Chlamydomonas reinhardtii
Protocol: as §1, §2, §3
(§4) Algae cultures were initiated in 96-well plates at an OD 750 of approximately 0.1. […] The antibiotics hygromycin and paromycin served as positive controls for inhibiting and/or reducing the growth rate of algae. […] The algae cultures were monitored by preparing microscopy slides with a small sample taken from the individual wells. The algae slides were then visualized under a 20× magnification microscope for algae viability as measured by algae color.

Chlorella protothecoides = system: Chlorella protothecoides
Protocol: as §1, §2, §3, §4

Chlorella sorokiniana = system: Chlorella sorokiniana
Protocol: as §1, §2, §3, §4

three rotifer species = experiment: Rotifer visual motility assay, summary statements over the three rotifer species; format: in vivo, Adineta vaga, Philodina acuticornis and Brachionus; conditions: AMP 0.5 mg/mL
From the text: Briefly, the rotifer motility assay used herein in the presence of a biocontrol agent (e.g., AMP) may be used as a measure of relative rotifer viability and competency. Rotifer diet, of which algae is considered to be an important food source, is one of the key environmental factors that impact the growth and multiplication of rotifers. In effect, the inability of a rotifer to be mobile (i.e., inability to swim toward a food source and/or to have mobile cilia that help trap food) prevents the rotifer from ingesting sufficient nutrients to further grow and reproduce. Thus, any approach that reduces and/or inhibits rotifer motility has a significant impact on an individual rotifer and therefore rotifer populations. With respect to algae cultures, reducing and/or inhibiting rotifer motility prevents and/or reduces any negative impact rotifers have on algae cultures (e.g., open pond systems for algae biomass and biofuel production). […]
The effect of the insecticidal and non-insecticidal AMPs of Table 2 (Example 1) on three different rotifer species was measured. […]
Rotifer cultures were initiated in 12-well or 24-well plates at a density of approximately 100-200 rotifers/mL. […] The rotifer cultures were monitored by preparing microscopy slides with a small sample taken from the individual wells. […]

Philodina acuticornis = format: in vivo; design: key to the marks not given beside the values; conditions: AMP 0.5 mg/mL, 24 hr time point, room temperature, visual motility score
From the text: (§5) Briefly, the rotifer motility assay used herein in the presence of a biocontrol agent (e.g., AMP) may be used as a measure of relative rotifer viability and competency. Rotifer diet, of which algae is considered to be an important food source, is one of the key environmental factors that impact the growth and multiplication of rotifers. In effect, the inability of a rotifer to be mobile (i.e., inability to swim toward a food source and/or to have mobile cilia that help trap food) prevents the rotifer from ingesting sufficient nutrients to further grow and reproduce. Thus, any approach that reduces and/or inhibits rotifer motility has a significant impact on an individual rotifer and therefore rotifer populations. With respect to algae cultures, reducing and/or inhibiting rotifer motility prevents and/or reduces any negative impact rotifers have on algae cultures (e.g., open pond systems for algae biomass and biofuel production). In other words, reducing and/or inhibiting rotifer motility reduces and/or prevents rotifers (e.g., infestations) from ingesting and consequently damaging algae cultures use in biofuel production.
(§6) The effect of the insecticidal and non-insecticidal AMPs of Table 2 (Example 1) on three different rotifer species was measured. The three rotifer species were Adineta vaga and Philodina acuticornis (class Bdelloid rotifers), and Brachionus (Monogononta class). A visual motility assay was used to determine the impact of the individual AMPs on rotifer viability. In each case, a light microscope with 20× magnification was used to observe rotifer motility (activity). […] FIGS. 1A, 1C and 1E show a 20× magnification of Adineta vaga, Philodina acuticornis and Brachionus (untreated), respectively. FIGS. 1B, 1D and 1F show a 20× magnification of Adineta vaga, Philodina acuticornis and Brachionus (AMP treated), respectively.
(§7) Rotifer cultures were initiated in 12-well or 24-well plates at a density of approximately 100-200 rotifers/mL. The 12-well plates contained a volume of 1 mL per well, and the 24-well plates contained a volume of about 0.25 mL to about 0.35 mL per well. Individual rotifer cultures (individual wells) were incubated with a select AMP at a concentration of 0.5 mg/mL (or a range of about 78 μM to about 365 μM) for 18, 21 and 24 hours at room temperature. The rotifer cultures were monitored by preparing microscopy slides with a small sample taken from the individual wells. The slides were then visualized under a 20× magnification microscope for rotifer motility. […] The scoring system was based on observing a subset of the rotifer population from each well. The impact on the subset of rotifers observed served as a representative of the impact on the entire rotifer population for that particular AMP treatment.
(§8) A summary of the motility assay (or “Kill Assay”) for each insecticidal and non-insecticidal AMP incubated with the three different rotifer species for the 24 hour time point is provided below in Table 5 (insecticidal AMPs) and Table 6 (non-insecticidal AMPs). The 18 and 21 hour time points gave similar results to the 24 hour time point.

Adineta vaga = format: in vivo; design: key to the marks not given beside the values; conditions: AMP 0.5 mg/mL, 24 hr time point, room temperature, visual motility score
From the text: as §5, §6, §7, §8

Brachionus = format: in vivo; conditions: AMP 0.5 mg/mL, 24 hr time point, room temperature, visual motility score
From the text: as §5, §6, §7, §8

[2] = 5-6 days, room temperature, 96-well, algae colour under 20× microscope, ND = AMP killed all the algae

Row | Sequence | tolerance of algae to the AMP (in words) (three algae species) | Minimal Inhibitory Concentration (MIC) Chlamydomonas reinhardtii [1, 2] [µM] | Minimal Inhibitory Concentration (MIC) Chlorella protothecoides (Chlorella protothecoides; [2]) | Minimal Inhibitory Concentration (MIC) Chlorella sorokiana (Chlorella sorokiniana; [2]) [µM] | negative impact on rotifer motility (in words) (three rotifer species) | “Kill” Efficiency Philodina (Philodina acuticornis) | “Kill” Efficiency Adineta vaga (Adineta vaga) | “Kill” Efficiency Brachionus (Brachionus) | Minimal Inhibitory Concentration (MIC) Chlamydomonas reinhardtii [1] [µM] | Minimal Inhibitory Concentration (MIC) Chlorella protothecoides (Chlorella protothecoides) [µM] | Minimal Inhibitory Concentration (MIC) Chlorella sorokiana (Chlorella sorokiniana) [µM]
1 | FIGTALGIASAIPAIVKLFK [Ponericin W6] | highly tolerated by algae | 61.6 | No Affect | 492.5 | high negative impact | ++ | ++ | +++ |  |  | 
2 | GWKDWLNKGKEWLKKKGPGIMKAALKAATQ [Ponericin G3] |  | 9.2 | 37 µM | 37 |  | +++ | +++ | +++ |  |  | 
3 | FFHHIFRGIVHVGKTIHRLVTG [Piscidin 1] |  |  |  |  |  | +++ | +++ | +++ | 12.2 | 12.2 | 24.3
4 | FWGALIKGAAKLIPSVVGLFKKKQ [Ponericin W5] |  | 12 | 12 µM | 24 |  | +++ | +++ | +++ |  |  | 
5 | FSFKRLKGFAKKLWNSKLARKIRTKGLKYVKNFAKDMLSEGEEAPPAAEPPVEAPQ [Im-1] |  | 9.9 | 9.9 µM | 19.7 |  | +++ | +++ | +++ |  |  | 
6 | IWLTALKFLGKHAAKHLAKQQLSKL [Lycotoxin-1, Lycotoxin I] |  | 22 | 44 µM | 88 |  | +++ | +++ | +++ |  |  | 
7 | GIWGTLAKIGIKAVPRVISMLKKKKQ [Ponericin W3] |  | 5.5 | 21.8 µM | 87.3 |  | +++ | +++ | +++ |  |  | 
8 | KWKLFKKIGIGKFLHWAKKF [W16-CA(1-8)-MA(1-12)] |  | 12.5 | ND (kills) | 25 |  | +++ | +++ | + |  |  | 
9 | GWKDWAKKAGGWLKKKGPGMAKAALKAAMQ [Ponericin G1] |  | 19.5 | 78 µM | 155.8 |  | +++ | +++ | +++ |  |  | 
10 | FLPLIGKVLSGIL [Temporin F, Temporin-F] | highly tolerated by algae | 91.3 | 365 µM | 730.7 | high negative impact |  |  |  |  |  | 
